This is an account of results in PubChem BioAssay (NCI).

Some test systems named below: COLO 205 colon; HS 578T breast; MOLT-4 leukemia; NCI-H522 lung; OVCAR-4 ovarian; SF-295 CNS; SF-539 CNS; SK-MEL-28 melanoma; SNB-75 CNS; UO-31 renal.
Common to all, as to assay: NCI-60 cell line screen, 48 h

Several values for one entry are separate records, joined by “and”; a condition that tells them apart may be missing. Equal entries are not always repeated.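 The compound was tested at five concentrations on cells cultured in 96-well plates, with a 48-hour exposure period. At the GI50, growth is halved. Definition used: TGI = concentration required for complete inhibition of growth.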

For `O=C(NC1CCN(Cc2ccccc2)CC1)c1cc(-c2ccncc2)nc2ccc(Cl)cc12`, the GI50 in the assay with COLO 205 colon is 7.76 µM; with HS 578T breast, 14.4 µM; with MOLT-4 leukemia, 4.26 µM; in the assay on NCI-H522 lung it was 22.2 µM; with OVCAR-4 ovarian it was 10.7 µM; in the assay on SF-295 CNS, 17.4 µM. Also, the GI50 with SF-539 CNS is 13.1 µM; in the assay with SK-MEL-28 melanoma it was 10.5 µM; in the assay on SNB-75 CNS, 2.43 µM; in the assay with UO-31 renal it was 3.12 µM. Also, the TGI in the assay on COLO 205 colon is 42.7 µM; in the assay with HS 578T breast, 64 µM; with MOLT-4 leukemia, above 46.3 µM; with NCI-H522 lung, 60.6 µM; with OVCAR-4 ovarian, 59.6 µM; in the assay with SF-295 CNS, 53.5 µM. The TGI was 35.9 µM with SF-539 CNS, above 50.7 µM with SK-MEL-28 melanoma, 30.4 µM in the assay with SNB-75 CNS and 33.9 µM with UO-31 renal.
As to `Cc1ccc([N+](=O)[O-])cc1NC(=O)Nc1cccc(F)c1`, the GI50 in the assay on COLO 205 colon is 8.85 µM; in the assay with HS 578T breast, 7.92 µM; in the assay on MOLT-4 leukemia, 3.38 µM; in the assay with NCI-H522 lung, 2.64 µM; in the assay with OVCAR-4 ovarian, 3.96 µM; in the assay with SF-295 CNS it was 2.46 µM. The GI50 in the assay with SF-539 CNS is 7.2 µM; in the assay with SK-MEL-28 melanoma, 19.8 µM; in the assay on SNB-75 CNS, 11.6 µM; in the assay on UO-31 renal it was 3.36 µM. Moreover, the TGI is above 100 µM with COLO 205 colon; 45.3 µM in the assay with HS 578T breast; above 100 µM with MOLT-4 leukemia; 15.7 µM with NCI-H522 lung; 51.9 µM in the assay with OVCAR-4 ovarian; 11 µM with SF-295 CNS. Also, the TGI was 33.6 µM in the assay with SF-539 CNS, above 100 µM in the assay on SK-MEL-28 melanoma, 37.1 µM in the assay on SNB-75 CNS and 17.6 µM in the assay on UO-31 renal.
As for `O=C1c2ccccc2-c2c1c1ccccc1c(=O)n2CCCCNCCCn1c2c(c3ccccc3c1=O)C(=O)c1ccccc1-2`, the GI50 with COLO 205 colon is 1.51 µM; with HS 578T breast, 0.822 µM; with MOLT-4 leukemia, 0.016 µM; in the assay on NCI-H522 lung, 0.361 µM; in the assay with OVCAR-4 ovarian it was 0.683 µM; in the assay on SF-295 CNS it was 0.27 µM. Moreover, the GI50 in the assay on SF-539 CNS is 0.492 µM; with SK-MEL-28 melanoma, 2.95 µM; in the assay on SNB-75 CNS it was 6.45 µM; with UO-31 renal, 0.0557 µM. In addition, the TGI with COLO 205 colon worked out at 12.7 µM; with HS 578T breast it was 16 µM; in the assay with MOLT-4 leukemia, 0.452 µM; with NCI-H522 lung it was 6.39 µM; with OVCAR-4 ovarian, 15.5 µM; with SF-295 CNS, 2.33 µM. The TGI turned out to be 2.07 µM in the assay with SF-539 CNS, 34.8 µM with SK-MEL-28 melanoma, 28.3 µM in the assay on SNB-75 CNS and 7.23 µM with UO-31 renal.
Turning to `O=C(O)CCNc1ccccc1C(=O)O`, the TGI in the assay with COLO 205 colon, with HS 578T breast, in the assay on MOLT-4 leukemia, in the assay with NCI-H522 lung, in the assay on OVCAR-4 ovarian and in the assay with SF-295 CNS was above 100 µM in each case. For the same compound, the TGI in the assay on SF-539 CNS, in the assay with SK-MEL-28 melanoma, in the assay with SNB-75 CNS and in the assay on UO-31 renal was above 100 µM each time.
In the case of `COc1ccc2oc(=O)cc(C(c3ccc[nH]3)c3ccc[nH]3)c2c1`, the GI50 was 0.221 µM in the assay on COLO 205 colon; 0.171 µM in the assay on HS 578T breast; 0.111 µM in the assay with MOLT-4 leukemia; 0.348 µM in the assay on NCI-H522 lung; 0.303 µM with OVCAR-4 ovarian; 0.092 µM in the assay with SF-295 CNS. Also, the GI50 was 0.0937 µM with SF-539 CNS, 0.874 µM in the assay with SK-MEL-28 melanoma, 0.123 µM in the assay on SNB-75 CNS and 0.127 µM in the assay with UO-31 renal. The TGI was found to be 0.549 µM in the assay with COLO 205 colon; 50.5 µM in the assay on HS 578T breast; 12 µM in the assay on MOLT-4 leukemia; 5.88 µM with NCI-H522 lung; 26.3 µM in the assay with OVCAR-4 ovarian; 0.214 µM with SF-295 CNS. Further, the TGI turned out to be 0.451 µM in the assay on SF-539 CNS, 14 µM with SK-MEL-28 melanoma, 11.8 µM in the assay on SNB-75 CNS and 11.9 µM with UO-31 renal.
As to `Clc1ncnc(Cl)c1Cl`, the TGI in the assay with COLO 205 colon, in the assay on HS 578T breast, in the assay on MOLT-4 leukemia, in the assay with NCI-H522 lung, in the assay with OVCAR-4 ovarian and in the assay with SF-295 CNS was above 100 µM throughout. In addition, the TGI in the assay with SF-539 CNS, in the assay on SK-MEL-28 melanoma, with SNB-75 CNS and in the assay on UO-31 renal was above 100 µM each time.
`CCN1CCN(Cc2ccc(-c3cc4c(N[C@H](C)c5ccccc5)ncnc4[nH]3)cc2)CC1`: the GI50 with COLO 205 colon was 1.9 µM and 1.73 µM; with HS 578T breast it was 2.1 µM and 0.763 µM; in the assay on MOLT-4 leukemia, 2.62 µM and 2.39 µM; with NCI-H522 lung it was 0.154 µM and 0.462 µM; with OVCAR-4 ovarian it was 4.71 µM and > 10 µM; in the assay on SF-295 CNS it was 1.62 µM and 3.09 µM. The GI50 in the assay with SF-539 CNS was 2.07 µM and 1.9 µM; with SK-MEL-28 melanoma, 1.96 µM and 1.98 µM; with SNB-75 CNS it was 1.48 µM and 1.88 µM; in the assay with UO-31 renal, 0.37 µM and 0.542 µM. The TGI in the assay on COLO 205 colon was 3.6 µM and 3.52 µM; in the assay with HS 578T breast, 9.79 µM and 5.24 µM; in the assay on MOLT-4 leukemia, 9.35 µM and > 10 µM; in the assay with NCI-H522 lung, 2.23 µM and > 10 µM; in the assay on OVCAR-4 ovarian it was 23 µM and > 10 µM; in the assay on SF-295 CNS it was 4.2 µM and > 10 µM. Moreover, the TGI in the assay on SF-539 CNS was 5.67 µM and 5.14 µM; in the assay on SK-MEL-28 melanoma, 3.93 µM and 4.26 µM; with SNB-75 CNS, 9.56 µM and 8.12 µM; in the assay with UO-31 renal, 8.95 µM and > 10 µM.
For the compound `C[C@@H]1COCCN1c1cc(C2([S@](C)(=N)=O)CC2)nc(-c2ccnc3[nH]ccc23)n1`, the GI50 is 6.18 µM and > 10 µM with COLO 205 colon; 2.93 µM and 3.72 µM in the assay on HS 578T breast; 2.58 µM and 3.39 µM in the assay with MOLT-4 leukemia; 8.61 µM and 4.82 µM with NCI-H522 lung; 2.27 µM and 3.62 µM in the assay with OVCAR-4 ovarian; 2.6 µM and 3.21 µM in the assay on SF-295 CNS. For the same compound, the GI50 is 1.19 µM and 1.99 µM in the assay on SF-539 CNS; 10.9 µM and > 10 µM in the assay on SK-MEL-28 melanoma; 2.29 µM and 2.16 µM in the assay with SNB-75 CNS; 2.95 µM and 2.04 µM with UO-31 renal. Moreover, the TGI is 43.1 µM and > 10 µM with COLO 205 colon; 29.6 µM and > 10 µM with HS 578T breast; 9.54 µM and > 10 µM in the assay with MOLT-4 leukemia; above 84 µM with NCI-H522 lung; 40.9 µM and > 10 µM with OVCAR-4 ovarian; 32.9 µM and > 10 µM in the assay with SF-295 CNS. In addition, the TGI with SF-539 CNS is 8.03 µM and > 10 µM; in the assay with SK-MEL-28 melanoma it was above 79.7 µM; in the assay with SNB-75 CNS, 20.3 µM and > 10 µM; with UO-31 renal it was 32.1 µM and > 10 µM.
